# Data reported in paper PMC4488959, “Structural Features of a Bacteroidetes-Affiliated Cellulase Linked with a Polysaccharide Utilization Locus” (Scientific Reports, 2015).
# Molecular target: T1, AC2aCel5A (Bacteroidetes bacterium AC2a, UniProt A0A076MPD7, E189A)
# T1 construct: signal peptide (residues 1-18) removed; mature 397 residues + C-terminal eight-residue His6-tag (405 residues), tag kept; synthetic gene, pNIC-CH, Escherichia coli
# Test: X-ray crystal structure (co-crystallization with […] cellotetraose)
# Type: binding
# Settings: 2.4 Å; subsites -3 to -1, molecule A only; crystals from 0.2 M potassium nitrate, 20% w/v PEG 3350; catalytically inactive mutant; authors consider that bound ligand is likely cellotetraose with fourt
# T1 sequence (A0A076MPD7 entry or part of it E189A): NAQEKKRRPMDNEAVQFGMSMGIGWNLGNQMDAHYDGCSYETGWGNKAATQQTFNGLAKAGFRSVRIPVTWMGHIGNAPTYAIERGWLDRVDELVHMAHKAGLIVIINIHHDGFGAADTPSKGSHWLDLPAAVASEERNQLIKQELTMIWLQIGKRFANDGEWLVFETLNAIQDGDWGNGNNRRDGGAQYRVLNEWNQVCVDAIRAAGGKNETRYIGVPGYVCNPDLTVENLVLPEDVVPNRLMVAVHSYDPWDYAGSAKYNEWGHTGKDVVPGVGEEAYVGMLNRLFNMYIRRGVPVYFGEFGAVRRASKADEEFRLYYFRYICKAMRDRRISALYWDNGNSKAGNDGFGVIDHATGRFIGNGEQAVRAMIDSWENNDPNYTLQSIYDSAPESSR
compound,measurement,value
OC[C@H]1O[C@@H](O[C@H]2[C@H](O)[C@@H](O)[C@H](O[C@H]3[C@H](O)[C@@H](O)C(O)O[C@@H]3CO)O[C@@H]2CO)[C@H](O)[C@@H](O)[C@@H]1O (stereo partly shown) [cellotriose],X-ray crystal structure (co-crystallization with 5 mM cellotetraose),"Additional electron density was observed in the active-site cleft of molecule A, and was refined"
